Data published in paper PMC10460844, “Real‐Time Monitoring of Multitarget Antimicrobial Mechanisms of Peptoids Using Label‐Free Imaging with Optical Diffraction Tomography” (Advanced Science, 2023).
Converted amounts (≈) assume the structure as drawn. Structures can show the parent of a compound that is named as a salt. Where two headings read alike, the source gives them in different places. Square brackets hold non-standard residues; d marks the D form. Peptide text beside a SMILES is read from it. Gly(N(CH2)2(3-indolyl)) = O=C(O)CNCCc1c[nH]c2ccccc12; Nspe = C[C@H](NCC(=O)O)c1ccccc1; Nphe = O=C(O)CNCc1ccccc1; Nlys = NCCCCNCC(=O)O

Columns and labels:
[1] = system: rat erythrocytes; assay: Hemolysis assay; assay type: cell-based
Procedure, shortened: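 Washed Sprague-Dawley rat erythrocytes (10% suspension in PBS pH 7.4) mixed with peptoids (0–100 µM), 60 min at 37 °C; supernatant A540 expressed as % of 1% Triton X-100 lysis. HC10/HC50 are concentrations giving 10%/50% hemolysis; Hmax is hemolysis at 100 µM.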

[2] = system: E. coli ATCC 25922; assay type: cell-based, Escherichia coli
Experimental: (§1) The antibacterial activity of the peptoids was evaluated against gram‐positive (Staphylococcus aureus, ATCC 25 923) and gram‐negative (Escherichia coli, ATCC 25 922) bacteria. […] The MIC of each peptoid was determined using a broth dilution assay. For each assay, the primary culture of either S. aureus or E. coli was grown overnight in cation‐adjusted Mueller Hinton broth 2 (MHB2) media at 37 °C with shaking. A secondary culture was prepared the next day, grown for 3–4 h, and then diluted in MHB2 media with a final concentration of 0.001% acetic acid and 0.02% bovine serum albumin to obtain a calculated optical density (OD) of 0.001. This corresponded to ≈2–5 × 10^5 colony‐forming units (CFU mL^−1) of bacteria. Using 96‐well polypropylene plates (Eppendorf, Hamburg, Germany), 100 µL of 2–5 × 10^5 CFU mL^−1 bacteria were added in triplicate for each peptoid. Each peptoid was assayed at six different concentrations in two‐fold serial dilutions. The maximum peptoid concentration was 25 µM. […] The MIC value determination was performed in triplicate. The MIC was defined as the lowest peptoid concentration that prevented turbidity during visual inspection.

[3] = system: S. aureus ATCC 25923; assay type: cell-based, Staphylococcus aureus
Experimental: as §1

[4] = Analytical reversed-phase HPLC elution (hydrophobicity); assay type: physicochemical; settings: Table S1; analytical RP-HPLC, SunFire C18, water/ACN + 0.1% TFA, 5 to 100% B linear over 30 min, 1 mL/min, UV 220 nm; approximate comparison of hydrophobicity
Procedure, shortened: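 Analytical reversed-phase HPLC on a C18 column (4.6 × 250 mm, 5 μm) at 1 mL/min, water/acetonitrile each with 0.1% TFA. Held at 5% B for 2 min, then linear to 100% B over 30 min and held 5 min, with UV detection at 220 nm; retention time (tR) serves as hydrophobicity measure.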

[5] = Table S2, broth dilution, MHB2, 37 °C 24 h, max 25 µM, mean of triplicate

MIC E. coli ATCC25922 [2, 5] [µM]	HPLC elution [4] [% MeCN]	MIC S. aureus ATCC25923 [3, 5] [µM]	SMILES	Hmax (100 µM) [1] [%]	HC10 ([1]; red cells of rat) [µM]	HC50 ([1]; red cells of rat) [µM]	MIC E. coli ATCC25922 ([2]; ATCC 25922) [µM]	MIC S. aureus ATCC25923 ([3]; ATCC 25923) [µM]	H max (100 µM) [1] [%]	HC10 ([1]; pH 7.4) [µM]	HC50 ([1]; pH 7.4) [µM]
			C[C@@H](c1ccccc1)N(CC(=O)N(CCCCN)CC(=O)N(CCc1c[nH]c2ccccc12)CC(=O)N(CCc1c[nH]c2ccccc12)CC(N)=O)C(=O)CN(CCCCN)C(=O)CN(CCCCN)C(=O)CN(C(=O)CN(C(=O)CN(CCCCN)C(=O)CN(C(=O)CN(C(=O)CNCCCCN)[C@@H](C)c1ccccc1)[C@@H](C)c1ccccc1)[C@@H](C)c1ccccc1)[C@@H](C)c1ccccc1 [29-HCl] (H-[Nlys][Nspe][Nspe][Nlys][Nspe][Nspe][Nlys][Nlys][Nspe][Nlys][Gly(N(CH2)2(3-indolyl))][Gly(N(CH2)2(3-indolyl))]-NH2)	4.3±0.3	> 100	> 100	12.5	12.5			
			C[C@@H](c1ccccc1)N(CC(N)=O)C(=O)CN(CCCCN)C(=O)CN(CCCCN)C(=O)CN(C(=O)CN(C(=O)CN(CCCCN)C(=O)CN(C(=O)CN(C(=O)CN(CCCCN)C(=O)CN(CCc1c[nH]c2ccccc12)C(=O)CN(CCc1c[nH]c2ccccc12)C(=O)CNCCCCN)[C@@H](C)c1ccccc1)[C@@H](C)c1ccccc1)[C@@H](C)c1ccccc1)[C@@H](C)c1ccccc1 [32-AcOH]	13.8±1.1	83.0	> 100	6.3 (≈ 11.7 µg/mL)	6.3 (≈ 11.7 µg/mL)			
			C[C@@H](c1ccccc1)N(CC(N)=O)C(=O)CN(CCCCN)C(=O)CN(CCCCN)C(=O)CN(C(=O)CN(C(=O)CN(CCCCN)C(=O)CN(C(=O)CN(C(=O)CN(CCCCN)C(=O)CN(CCc1c[nH]c2ccccc12)C(=O)CN(CCc1c[nH]c2ccccc12)C(=O)CNCCCCN)[C@@H](C)c1ccccc1)[C@@H](C)c1ccccc1)[C@@H](C)c1ccccc1)[C@@H](C)c1ccccc1 [32-HCl]	8.7±0.6	> 100	> 100	6.3	6.3			
			C[C@@H](c1ccccc1)N(CC(=O)N(CCCCN)CC(=O)N(CC(=O)N(CC(=O)N(CCCCN)CC(=O)N(CC(=O)N(CC(=O)N(CCCCN)CC(N)=O)[C@@H](C)c1ccccc1)[C@@H](C)c1ccccc1)[C@@H](C)c1ccccc1)[C@@H](C)c1ccccc1)C(=O)CN(C(=O)CN(CCCCN)C(=O)CN(CCc1c[nH]c2ccccc12)C(=O)CNCCc1c[nH]c2ccccc12)[C@@H](C)c1ccccc1 [37-AcOH] (H-[Gly(N(CH2)2(3-indolyl))][Gly(N(CH2)2(3-indolyl))][Nlys][Nspe][Nspe][Nlys][Nspe][Nspe][Nlys][Nspe][Nspe][Nlys]-NH2)	98.9±8.0	12.5	26.0	6.3 (≈ 12 µg/mL)	1.6 (≈ 3.04 µg/mL)			
			C[C@@H](c1ccccc1)N(CC(=O)N(CCCCN)CC(=O)N(CC(=O)N(CC(=O)N(CCCCN)CC(=O)N(CC(=O)N(CC(=O)N(CCCCN)CC(N)=O)[C@@H](C)c1ccccc1)[C@@H](C)c1ccccc1)[C@@H](C)c1ccccc1)[C@@H](C)c1ccccc1)C(=O)CN(C(=O)CN(CCCCN)C(=O)CN(CCc1c[nH]c2ccccc12)C(=O)CNCCc1c[nH]c2ccccc12)[C@@H](C)c1ccccc1 [37-HCl] (H-[Gly(N(CH2)2(3-indolyl))][Gly(N(CH2)2(3-indolyl))][Nlys][Nspe][Nspe][Nlys][Nspe][Nspe][Nlys][Nspe][Nspe][Nlys]-NH2)	86.6±5.7	14.4	56.5	6.3	3.1			
> 25	47.3	25 (≈ 44 µg/mL)	C[C@@H](c1ccccc1)N(CC(=O)N(CCCCN)CC(=O)N(CC(=O)N(CC(N)=O)Cc1ccccc1)Cc1ccccc1)C(=O)CN(CCCCN)C(=O)CN(CCCCN)C(=O)CN(C(=O)CN(C(=O)CN(CCCCN)C(=O)CN(C(=O)CN(C(=O)CNCCCCN)[C@@H](C)c1ccccc1)[C@@H](C)c1ccccc1)[C@@H](C)c1ccccc1)[C@@H](C)c1ccccc1 [peptoid 45] (H-[Nlys][Nspe][Nspe][Nlys][Nspe][Nspe][Nlys][Nlys][Nspe][Nlys][Nphe][Nphe]-NH2)	4.5±0.2					4.5 ± 0.2	> 100	> 100
